Assay results as given in patent US20220340629A1, “Myosin Derived Peptides and Related Compounds with Anticoagulant Activities” (THE SCRIPPS RESEARCH INSTITUTE, priority 0001, published 2022).
Starred links: 1 amine or outer side, 2 acyl side, 3 side chain; linkers in the order of their positions; H or OH if unused. Positions of bridges follow the written chain, without caps; N, C: chain ends. Residues, ends and D or L forms follow the SMILES beside them. Suc = O=C(CCC(=O)[*:2])[*:1]

System: thrombin generation in human platelet poor plasma with skeletal muscle myosin
Assay: Assay 2A: thrombin generation, recalcification of human platelet poor plasma + myosin
Assay type: biochemical
Conditions: human platelet poor plasma 30%, myosin 50 nM, CaCl2 10 mmol/L; read-out: 2A (recalcification +myosin)
Protocol: Activities of the various peptides and derivative compounds were also examined via assays using recalcification of human plasma. [One of] these assay format (2A) involves monitoring thrombin generation in platelet poor plasma (PPP). Specifically, pooled normal human platelet poor plasma (PPP) (obtained from George King Bio Medical Inc., Overland Park, Kans.) (30%) was incubated with skeletal muscle myosin at 50 nM in the presence of peptide in DMSO or DMSO alone for 5 min at 37° C. Then, fluorogenic thrombin substrate solution (Z-Gly-Gly-Arg-AMC) (I-1140) with CaCl2 (10 mmol/L final) alone was added to the reaction mixture (total 110 μl) to initiate coagulation. Thrombin generation was followed continuously for 25 min using SPECTRAmax GEMINI XS fluorometer (Molecular Devices, Sunnyvale, Calif.) with excitation and emission wavelengths set at 360 and 460 nm, respectively. The first derivative of fluorescence versus time was used to produce thrombin generation curves with the correction for substrate consumption and inner filter effect. For this assay 96 well plate (total 110 μL) or 384 well plates (total 30 μL) were used.
Activities obtained from Assay 2A (recalcification of human plasma in the presence of myosin) were used to rank the various peptides listed in Table 3. As noted above, this assay monitors recalcification of plasma to stimulate thrombin generation. In this assay, potency of the compounds was determined as the peptide concentration for 50% inhibition of thrombin generation, defined as “IC50”.

Compound | IC50
CC[C@H](C)[C@H](NC(=O)[C@H](C)NC(=O)[C@H](CCC(=O)O)NC(=O)[C@@H]1CCCCNC(=O)CCC(=O)NCCCC[C@@H]2NC(=O)[C@H](CCC(=O)O)NC(=O)[C@H](C(C)C)NC(=O)[C@@H](NC(=O)[C@H](C)NC(=O)[C@H](CC(C)C)NC(=O)[C@H](Cc3ccccc3)NC(=O)CNC(=O)[C@H](CCCNC(=N)N)NC(=O)[C@H](CS)NC(=O)[C@H](CCCNC(=N)N)NC(=O)[C@H](C)N)CCCCNC(=O)CCC(=O)NCCCC[C@H](NC(=O)[C@H](CCSC)NC(=O)[C@H](CCCNC(=N)N)NC(=O)[C@H](CCC(N)=O)NC2=O)C(=O)N[C@@H](CCC(=O)O)C(=O)N[C@@H](CCCNC(=N)N)C(=O)N1)C(=O)N[C@@H](Cc1ccccc1)C(=O)N[C@@H](CS)C(=O)N[C@H](C(=O)N[C@@H](CCC(N)=O)C(=O)N[C@@H](Cc1ccc(O)cc1)C(=O)N[C@@H](CC(N)=O)C(=O)N[C@H](C(=O)N[C@@H](CCCNC(=N)N)C(=O)N[C@@H](CO)C(=O)N[C@@H](Cc1ccccc1)C(=O)N[C@@H](CCSC)C(=O)N[C@@H](CC(N)=O)C(=O)N[C@H](C(=O)N[C@@H](CCCCN)C(=O)N[C@@H](Cc1c[nH]cn1)C(=O)N[C@@H](Cc1c[nH]c2ccccc12)C(=O)N1CCC[C@H]1C(=O)N[C@@H](Cc1c[nH]c2ccccc12)C(N)=O)C(C)C)[C@@H](C)CC)[C@@H](C)CC [HC157] (H-ARCRGFLAKVEKQRMKERKEAIFCIQYNIRSFMNVKHWPW-NH2; linker 9-16, 12-19 via Suc (inferred); N-terminus and C-terminus assumed) | 11 µM
CC[C@H](C)[C@H](NC(=O)[C@H](C)NC(=O)[C@@H]1CCCCNC(=O)CCC(=O)NCCCC[C@@H]2NC(=O)[C@H](Cc3ccc(O)cc3)NC(=O)[C@H](CCC(=O)O)NC(=O)[C@H](C(C)C)NC(=O)[C@@H](NC(=O)[C@H](C)NC(=O)[C@H](CC(C)C)NC(=O)[C@H](Cc3ccccc3)NC(=O)CNC(=O)[C@H](CCCNC(=N)N)NC(=O)[C@H](CS)NC(=O)[C@H](CCCNC(=N)N)NC(=O)[C@H](C)N)CCCCNC(=O)CCC(=O)NCCCC[C@H](NC(=O)[C@H](CCSC)NC(=O)[C@H](CCCNC(=N)N)NC2=O)C(=O)N[C@@H](CCC(=O)O)C(=O)N[C@@H](CCCNC(=N)N)C(=O)N[C@@H](CCCNC(=N)N)C(=O)N1)C(=O)N[C@@H](Cc1ccccc1)C(=O)N[C@@H](CS)C(=O)N[C@H](C(=O)N[C@@H](CCC(N)=O)C(=O)N[C@@H](Cc1ccc(O)cc1)C(=O)N[C@@H](CC(N)=O)C(=O)N[C@H](C(=O)N[C@@H](CCCNC(=N)N)C(=O)N[C@@H](CO)C(=O)N[C@@H](Cc1ccccc1)C(=O)N[C@@H](CCSC)C(=O)N[C@@H](CC(N)=O)C(=O)N[C@H](C(=O)N[C@@H](CCCCN)C(=O)N[C@@H](Cc1c[nH]cn1)C(=O)N[C@@H](Cc1c[nH]c2ccccc12)C(=O)N1CCC[C@H]1C(=O)N[C@@H](Cc1c[nH]c2ccccc12)C(N)=O)C(C)C)[C@@H](C)CC)[C@@H](C)CC [HC158] (H-ARCRGFLAKVEYKRMKERRKAIFCIQYNIRSFMNVKHWPW-NH2; linker 9-16, 13-20 via Suc (inferred); N-terminus and C-terminus assumed) | 5.8 µM
CC[C@H](C)[C@H](NC(=O)[C@H](C)NC(=O)[C@H](CCC(=O)O)NC(=O)[C@H](CCCNC(=N)N)NC(=O)[C@H](CCCNC(=N)N)NC(=O)[C@H](CCC(=O)O)NC(=O)[C@@H]1CCCCNC(=O)CCC(=O)NCCCC[C@@H]2NC(=O)[C@H](C)NC(=O)[C@H](CC(C)C)NC(=O)[C@H](Cc3ccccc3)NC(=O)CNC(=O)[C@H](CCCNC(=N)N)NC(=O)[C@@H](NC(=O)[C@H](CCCNC(=N)N)NC(=O)[C@H](C)N)CCCCNC(=O)CCC(=O)NCCCC[C@H](NC2=O)C(=O)N[C@@H](CCC(=O)O)C(=O)N[C@@H](Cc2ccc(O)cc2)C(=O)N[C@@H](CCC(N)=O)C(=O)N[C@@H](CCCNC(=N)N)C(=O)N[C@@H](CCSC)C(=O)N1)C(=O)N[C@@H](Cc1ccccc1)C(=O)N[C@@H](CS)C(=O)N[C@H](C(=O)N[C@@H](CCC(N)=O)C(=O)N[C@@H](Cc1ccc(O)cc1)C(=O)N[C@@H](CC(N)=O)C(=O)N[C@H](C(=O)N[C@@H](CCCNC(=N)N)C(=O)N[C@@H](CO)C(=O)N[C@@H](Cc1ccccc1)C(=O)N[C@@H](CCSC)C(=O)N[C@@H](CC(N)=O)C(=O)N[C@H](C(=O)N[C@@H](CCCCN)C(=O)N[C@@H](Cc1c[nH]cn1)C(=O)N[C@@H](Cc1c[nH]c2ccccc12)C(=O)N1CCC[C@H]1C(=O)N[C@@H](Cc1c[nH]c2ccccc12)C(N)=O)C(C)C)[C@@H](C)CC)[C@@H](C)CC [HC153] (H-ARKRGFLAKKEYQRMKERREAIFCIQYNIRSFMNVKHWPW-NH2; linker 3-10, 9-16 via Suc (inferred); N-terminus and C-terminus assumed) | 11 µM
CC[C@H](C)[C@H](NC(=O)[C@H](C)NC(=O)[C@H](CCC(=O)O)NC(=O)[C@H](CCCNC(=N)N)NC(=O)[C@H](CCCNC(=N)N)NC(=O)[C@@H]1CCCCNC(=O)CCC(=O)NCCCC[C@@H]2NC(=O)[C@@H](NC(=O)[C@H](C)NC(=O)[C@H](CC(C)C)NC(=O)[C@H](Cc3ccccc3)NC(=O)CNC(=O)[C@H](CCCNC(=N)N)NC(=O)[C@H](CS)NC(=O)[C@H](CCCNC(=N)N)NC(=O)[C@H](C)N)CCCCNC(=O)CCC(=O)NCCCC[C@H](NC(=O)[C@H](CCSC)NC(=O)[C@H](CCCNC(=N)N)NC(=O)[C@H](CCC(N)=O)NC(=O)[C@H](Cc3ccc(O)cc3)NC(=O)[C@H](CCC(=O)O)NC2=O)C(=O)N1)C(=O)N[C@@H](Cc1ccccc1)C(=O)N[C@@H](CS)C(=O)N[C@H](C(=O)N[C@@H](CCC(N)=O)C(=O)N[C@@H](Cc1ccc(O)cc1)C(=O)N[C@@H](CC(N)=O)C(=O)N[C@H](C(=O)N[C@@H](CCCNC(=N)N)C(=O)N[C@@H](CO)C(=O)N[C@@H](Cc1ccccc1)C(=O)N[C@@H](CCSC)C(=O)N[C@@H](CC(N)=O)C(=O)N[C@H](C(=O)N[C@@H](CCCCN)C(=O)N[C@@H](Cc1c[nH]cn1)C(=O)N[C@@H](Cc1c[nH]c2ccccc12)C(=O)N1CCC[C@H]1C(=O)N[C@@H](Cc1c[nH]c2ccccc12)C(N)=O)C(C)C)[C@@H](C)CC)[C@@H](C)CC [HC156] (H-ARCRGFLAKKEYQRMKKRREAIFCIQYNIRSFMNVKHWPW-NH2; linker 9-16, 10-17 via Suc (inferred); N-terminus and C-terminus assumed) | 9.3 µM

Next, values leading:

IC50 | Compound
13.3 µM | CC[C@H](C)[C@@H]1NC(=O)[C@H](C)NC(=O)[C@@H](NC(=O)[C@H](CCCNC(=N)N)NC(=O)[C@H](CCCNC(=N)N)NC(=O)[C@H](CCC(=O)O)NC(=O)[C@@H]2CCCCNC(=O)CCC(=O)NCCCC[C@H](NC(=O)[C@H](C)NC(=O)[C@H](CC(C)C)NC(=O)[C@H](Cc3ccccc3)NC(=O)CNC(=O)[C@H](CCCNC(=N)N)NC(=O)[C@H](CS)NC(=O)[C@H](CCCNC(=N)N)NC(=O)[C@H](C)N)C(=O)N[C@@H](C(C)C)C(=O)N[C@@H](CCC(=O)O)C(=O)N[C@@H](Cc3ccc(O)cc3)C(=O)N[C@@H](CCC(N)=O)C(=O)N[C@@H](CCCNC(=N)N)C(=O)N[C@@H](CCSC)C(=O)N2)CCCCNC(=O)CCC(=O)NCCCC[C@@H](C(=O)N[C@@H](CC(N)=O)C(=O)N[C@H](C(=O)N[C@@H](CCCNC(=N)N)C(=O)N[C@@H](CO)C(=O)N[C@@H](Cc2ccccc2)C(=O)N[C@@H](CCSC)C(=O)N[C@@H](CC(N)=O)C(=O)N[C@H](C(=O)N[C@@H](CCCCN)C(=O)N[C@@H](Cc2c[nH]cn2)C(=O)N[C@@H](Cc2c[nH]c3ccccc23)C(=O)N2CCC[C@H]2C(=O)N[C@@H](Cc2c[nH]c3ccccc23)C(N)=O)C(C)C)[C@@H](C)CC)NC(=O)[C@H](CCC(N)=O)NC(=O)[C@H]([C@@H](C)CC)NC(=O)[C@H](CS)NC(=O)[C@H](Cc2ccccc2)NC1=O [HC159] (H-ARCRGFLAKVEYQRMKERRKAIFCIQKNIRSFMNVKHWPW-NH2; linker 9-16, 20-27 via Suc (inferred); N-terminus and C-terminus assumed)
3.4 µM | CC[C@H](C)[C@H](NC(=O)[C@H](C)NC(=O)[C@H](CCC(=O)O)NC(=O)[C@H](CCCNC(=N)N)NC(=O)[C@H](CCCNC(=N)N)NC(=O)[C@H](CCC(=O)O)NC(=O)[C@@H]1CCCCNC(=O)CCC(=O)NCCCC[C@H](NC(=O)[C@H](C)NC(=O)[C@H](CC(C)C)NC(=O)[C@H](Cc2ccccc2)NC(=O)CNC(=O)[C@H](CCCNC(=N)N)NC(=O)[C@H](CS)NC(=O)[C@H](CCCNC(=N)N)NC(=O)[C@H](C)N)C(=O)N[C@@H](C(C)C)C(=O)N[C@@H](CCC(=O)O)C(=O)N[C@@H](Cc2ccc(O)cc2)C(=O)N[C@@H](CCC(N)=O)C(=O)N[C@@H](CCCNC(=N)N)C(=O)N[C@@H](CCSC)C(=O)N1)C(=O)N[C@@H](Cc1ccccc1)C(=O)N[C@H]1CCCCNC(=O)CCC(=O)NCCCC[C@@H](C(=O)N[C@@H](Cc2ccccc2)C(=O)N[C@@H](CCSC)C(=O)N[C@@H](CC(N)=O)C(=O)N[C@H](C(=O)N[C@@H](CCCCN)C(=O)N[C@@H](Cc2c[nH]cn2)C(=O)N[C@@H](Cc2c[nH]c3ccccc23)C(=O)N2CCC[C@H]2C(=O)N[C@@H](Cc2c[nH]c3ccccc23)C(N)=O)C(C)C)NC(=O)[C@H](CCCNC(=N)N)NC(=O)[C@H]([C@@H](C)CC)NC(=O)[C@H](CC(N)=O)NC(=O)[C@H](Cc2ccc(O)cc2)NC(=O)[C@H](CCC(N)=O)NC(=O)[C@H]([C@@H](C)CC)NC1=O [HC160] (H-ARCRGFLAKVEYQRMKERREAIFKIQYNIRKFMNVKHWPW-NH2; linker 9-16, 24-31 via Suc (inferred); N-terminus and C-terminus assumed)
